Here are results for 16 compounds from PMC10754745, “In silico prediction and in vitro assessment of novel heterocyclics with antimalarial activity” (Parasitology Research, 2023).

One data set relates to P. falciparum. Details: method as in Shahinas et al. [2013]. The settings on record: in vitro against P. falciparum; ref Shahinas et al. [2013]; cited from earlier work.
A further data set concerns Galleria mellonella. Put plainly: In vivo toxicity in Galleria mellonella larvae. Also on record: G. mellonella Toxicity class: scale not given here. Particulars: class from LD50 in larvae. Here is the method:
(§1) In vivo toxicity was performed using the invertebrate Galleria mellonella model. Healthy, beige larvae weighing 200–250 mg were obtained from the Entomology laboratory at the University and selected for toxicity assays. Groups of ten six-instar larvae were inoculated with 10 μL or 20 μL of each compound at concentrations equivalent to 3000 mg/kg and incubated at 37 °C in darkness. […] The larvae were initially injected with 1000 mg/kg, and if most larvae (> 60%) survived after 5 days, the assay was performed using higher doses up to 3000 mg/kg (Piatek et al. [2021]).

Data set [1] in a line: In vivo toxicity in Galleria mellonella larvae. Details: G. mellonella Toxicity class: scale not given here. Particulars: Galleria mellonella, in vivo, other: injection; larvae, injection, survival monitored 5 days; read-out: G. mellonella LD50. As to the method: as §1
The subject of a further data set is P. falciparum 3D7. Put plainly: Growth inhibition of P. falciparum 3D7 cultures, SYBR Green assay. The class given is cell-based, Plasmodium falciparum. The settings on record: P. falciparum 3D7, 72 h, triplicate. As to the method:
Antimalarial activity of the selected compounds was assessed by growth inhibition assays. P. falciparum 3D7 parasites (a chloroquine-sensitive strain) kindly supplied by the Biodefense and Emerging Infections Research Resources Repository (BEI resources, NIAID, NIH, USA) were cultured by the Trager-Jensen method (Trager and Jensen [1976]; Moll et al. [2013]) with modifications. Briefly, parasite-infected red blood cells (RBCs) were kept in continuous culture in complete culture medium (CCM) containing RPMI 1640 (GIBCO), 25 mM hydroxypipazine-N’-2-ethane sulfonic acid (HEPES, Sigma), and 25 μg/mL gentamicin. […] [2013]). Parasite growth was monitored by preparing Giemsa-stained smears. The parasitemia was determined by examination of at least 10 high power magnification fields (hpf) (Moll et al. [2013]), and levels of parasitemia were kept between 5 and 10%. Artemisinin (Sigma) and chloroquine diphosphate salt (Sigma) were used as control drugs. […] Susceptibility assays were performed by the SYBR Green method with modifications (Kato et al. [2018]). Briefly, P. falciparum-infected RBCs cultured under standard conditions were plated at about 2% parasitemia (2% hematocrit), in 96-well microplates, and 10 μM of each compound was added; the final DMSO concentration was less than 0.1%. Parasites were initially incubated for 72 h before addition of lysis buffer (20mM Tris-HCl, 5mM EDTA, 0.008% saponin, 0.08% Triton X-100) supplemented with 0.04% SYBR™ Green I Nucleic Acid (10,000 × in DMSO, Invitrogen), then the microplates were returned to culture for 4 h at room temperature and read in a microplate fluorimeter (Cytation 3 M, Biotek) at excitation 485 nm–emission 530 nm. A control drug for total growth inhibition, a non-drug well and uninfected RBCs were included as positive and negative controls, respectively. The percentage (%) of inhibition was calculated as follows: 1-(fluorescence of treated/nontreated cultures) × 100. […] To do this, parasite cultures were exposed to serial two-fold dilutions of the test compounds ranging from 10 to 0.078 μM. Controls of uninfected RBCs and CQ-treated infected RBCs were included, and the assays were performed in triplicate.

For another data set, the system named is human RBCs. Put plainly: Hemolytic activity test. The class given is cell-based. Particulars: human RBCs 2% hematocrit, 72 h, 37 °C, tested at 200, 100, 50, 25 μM. Here is the method: The ability to induce membrane damage was assessed by testing the hemolytic activity of those compounds showing inhibition of parasite growth. The assay was adapted from Sousa et al. ([2021]) with modifications. Briefly, 180 μL of human RBCs adjusted to 2% hematocrit in phosphate buffered saline (PBS) were placed into a 96-well microplate and subsequently exposed to 200 μM of each selected compound. As a positive control, 20 μL of 1% sodium dodecyl sulfate (SDS) was added, and a non-drug well was included as a negative control. Free hemoglobin was measured after 72 h of incubation at 37 °C by spectrophotometry at 540 nm (Cytation 3 M, Biotek). Nonspecific absorbance was corrected by subtracting the blank (PBS). Determinations were done by triplicate in at least two independent experiments. Compounds with hemolytic activity at 200 μM were further tested at 100 μM, 50 μM, and 25 μM dilutions.

The mark [2] stands for this setting: Plasmodium falciparum, 3D7, 72 h.

What is called IC50 is the concentration needed to halve the response being measured. Broadly, the LD50 is the dose expected to kill half of the subjects tested.

For `CC(C)NCCCn1c(Sc2cc3c(cc2I)OCO3)nc2c(N)ncnc21` [PU-H71], in the data set on P. falciparum, the IC50 was 110 nM.

Take `O=C(/C=C/c1cccc(Nc2ccnc3cc(Cl)ccc23)c1)c1ccc2c(c1)OCO2` [UV7, Quinolinyl-amino chalcone]: the “G. mellonella Toxicity class” value in the data set on Galleria mellonella is listed as 5. For the same compound, in data set [1], the LD50 at 5 days was determined as 2000 mg/kg. Besides, the IC50 in the data set with P. falciparum 3D7 was around 1000 nM; with P. falciparum 3D7 (listed as 7), 1070 ± 200 nM; in the data set on P. falciparum 3D7 (setting [2]), above 1000 nM. The same compound had a Hemolytic activity with human RBCs above 200 µM.

`CC(=O)N1N=C(c2cccc(Nc3ccncc3)c2)CC1c1ccc(Cl)cc1` (stereo not drawn) [UV285] had an IC50 in the data set with P. falciparum 3D7 (setting [2]) of 1580 to 2750 nM.

With `CC(=O)N1N=C(c2cccc(Nc3ccncc3)c2)CC1c1ccc(Br)cc1` (stereo not drawn) [UV286], the “G. mellonella Toxicity class” value in the data set with Galleria mellonella was 4. For the same compound, the LD50 at 5 days in data set [1] amounted to 1500 mg/kg. For the same compound, the IC50 with P. falciparum 3D7 is below 1000 nM; in the data set on P. falciparum 3D7 (listed as 286) it was 444 ± 100 nM. The compound also yielded a Hemolytic activity in the data set with human RBCs above 200 µM.

`COc1ccc(C2CC(c3cccc(Nc4ccncc4)c3)=NN2C(C)=O)cc1` (stereo not drawn) [UV287] had an IC50 in the data set on P. falciparum 3D7 (setting [2]) of 1580 to 2750 nM.

Consider `CC(=O)N1N=C(c2cccc(Nc3ccncc3)c2)CC1c1ccc(F)cc1` (stereo not drawn) [UV288], for which the IC50 with P. falciparum 3D7 (setting [2]) lay in the range of 1580 to 2750 nM.

In turn, `CC(=O)N1N=C(c2cccc(Nc3ccncc3)c2)CC1c1ccc2c(c1)OCO2` (stereo not drawn) [UV290] came in with an IC50 in the data set with P. falciparum 3D7 (setting [2]) of 1580 to 2750 nM.

As for `CC(=O)N1N=C(c2cccc(Nc3ccncc3)c2)CC1c1ccc(C)cc1` (stereo not drawn) [UV291], the IC50 in the data set with P. falciparum 3D7 (setting [2]) was 1580 to 2750 nM.

With `CC(=O)N1N=C(c2cccc(Nc3ccncc3)c2)CC1c1ccccc1` (stereo not drawn) [UV292], the “G. mellonella Toxicity class” value with Galleria mellonella is given as 5. For the same compound, the LD50 at 5 days in data set [1] was 3000 mg/kg. In addition, the IC50 in the data set on P. falciparum 3D7 was 660 ± 200 nM; in the data set with P. falciparum 3D7 (setting [2]), below 1000 nM. Further, the Hemolytic activity in the data set with human RBCs was above 100 µM.

For `COc1ccc(C2CC(c3cccc(Nc4ccncc4)c3)=NN2c2ccccc2)cc1` (stereo not drawn) [UV296], the “G. mellonella Toxicity class” value in the data set on Galleria mellonella worked out at 5. Further, the LD50 at 5 days in data set [1] turned out to be 2000 mg/kg. Also, the values for the IC50 in the data set on P. falciparum 3D7 and with P. falciparum 3D7 (setting [2]) were 629 ± 100 nM and below 1000 nM, respectively. Further, the Hemolytic activity result with human RBCs was “induced RBC hemolysis at lower concentrations”; with human RBCs (listed as 296), above 25 µM.

With `COc1cc(C2CC(c3cccc(Nc4ccncc4)c3)=NN2c2ccccc2)cc(OC)c1OC` (stereo not drawn) [UV297], the “G. mellonella Toxicity class” value in the data set with Galleria mellonella was determined as 5. Moreover, the LD50 at 5 days in data set [1] was 2000 mg/kg. The IC50 in the data set with P. falciparum 3D7 is 991 ± 280 nM; with P. falciparum 3D7 (setting [2]) it was below 1000 nM. In the data set on human RBCs, this compound showed a Hemolytic activity above 200 µM.

As for `Clc1ccc(N2N=C(c3cccc(Nc4ccncc4)c3)CC2c2ccc3c(c2)OCO3)cc1` (stereo not drawn) [UV306, 4-(pyridyl-aminophenyl)-methyledioxyphenyl-N-(4-chlorophenyl)pyrazoline], in the data set on Galleria mellonella, the “G. mellonella Toxicity class” value is given as 5. Also, in data set [1], the LD50 at 5 days was found to be 2000 mg/kg. The IC50 was 710 ± 100 nM with P. falciparum 3D7 and below 1000 nM in the data set on P. falciparum 3D7 (setting [2]). Further, the Hemolytic activity with human RBCs was determined as 25 µM.

As to `Nc1ncnc2c1N=C(c1cccc(Nc3ccncc3)c1)CC(c1ccccc1)N2` (stereo not drawn) [UV712, Pyridyl-amino-pyrimido-diazepine], the “G. mellonella Toxicity class” value in the data set with Galleria mellonella is recorded as 4. In data set [1], the LD50 at 5 days is 1000 mg/kg. For the same compound, the IC50 was around 1000 nM in the data set with P. falciparum 3D7, 1080 ± 200 nM in the data set on P. falciparum 3D7 (listed as 712) and above 1000 nM in the data set on P. falciparum 3D7 (setting [2]). In addition, in the data set on human RBCs, the Hemolytic activity is above 200 µM.

`Nc1nc(N)c2c(n1)NC(c1ccc(Cl)cc1)CC(c1cccc(Nc3ccncc3)c1)=N2` (stereo not drawn) [UV797, Pyridyl-amino-pyrimido-diazepine]: the “G. mellonella Toxicity class” value in the data set on Galleria mellonella is 5. The LD50 at 5 days in data set [1] worked out at 2000 mg/kg. For the same compound, the IC50 in the data set on P. falciparum 3D7 was determined as 353 ± 19 nM. The Hemolytic activity in the data set on human RBCs was above 200 µM.

For the compound `Cc1ccc(C2CC(c3cccc(Nc4ccncc4)c3)=Nc3c(N)nc(N)nc3N2)cc1` (stereo not drawn) [UV801, Pyridyl-amino- pyrimido- diazepine], the “G. mellonella Toxicity class” value with Galleria mellonella turned out to be 5. In data set [1], the LD50 at 5 days is 2000 mg/kg. Further, the values for the IC50 in the data set on P. falciparum 3D7 and in the data set on P. falciparum 3D7 (setting [2]) were 537 ± 30 nM and below 1000 nM, respectively. The Hemolytic activity in the data set with human RBCs was above 200 µM.

Consider `Nc1nc(N)c2c(n1)NC(c1ccccc1)CC(c1cccc(Nc3ccncc3)c1)=N2` (stereo not drawn) [UV802, Pyridyl-amino-pyrimido-diazepina], for which the “G. mellonella Toxicity class” value in the data set on Galleria mellonella is given as 5. The LD50 at 5 days in data set [1] came to 2000 mg/kg. This compound also showed an IC50 in the data set with P. falciparum 3D7 of 178 ± 40 nM. In the data set on human RBCs, the Hemolytic activity is above 200 µM.
